# How the values were obtained:
# AsPC1 cells [1] = test: Devimistat-induced cell death (ATP after recovery) in AsPC1 cells; assay type: cell-based, human; conditions: exogenous nutrient-free conditions
# Description: Cells were plated at 80% confluency in complete RPMI in black, clear bottom 96-well plates or 35-mm dishes for ATP, protein and glycogen analysis, or glass coverslips for fluorescence visualization. […] Prior to drug treatment, cells were incubated in a nutrient-free carbonate buffered salt solution (CBS2) for 3 hours. Drug treatments were then carried out in CBS2 with addition of nutrient sources and/or chemical agents as described in the Examples and Figures.
# LOGIC: High throughput, plate reader assays for cell death essentially always ultimately depend on metabolic activity of cells to identify viability, directly or indirectly. Thus, strong inhibition of metabolic activity by anti-metabolism agents like those described herein can confound cell death analysis by such assays. […] The inventors thus used a recovery-based assay wherein cells are treated with anti-metabolic agents under conditions where mitochondrial metabolism is (or becomes) limiting on viability. After experimental treatment, drug and media are removed and cells are allowed to recover in serum-free RPMI. RPMI provides high levels of glucose in support of glycolytic ATP generation (independently of mitochondrial function), allowing viable cells to recover ATP levels that are ultimately measured in the plate assay to score cell viability.
# Survival is assessed by conventional luminescence measurement of ATP levels after this recovery.
# TECHNICAL DETAILS: Immediately after drug treatments, acute ATP levels of cells in black, clear bottom 96-well plates were measured using the CellTiter-Glo® Luminescent Cell Viability Assay (catalog #G775B) following Promega (Madison, WI) protocols. […] After this recovery period ATP levels were measured using the CellTiter-Glo® Luminescent Cell Viability Assay as described above.
# Survival is assessed by conventional luminescence measurement of ATP levels after this recovery. See the Methods section above for a detailed description of this assay and its validation.
# AsPC1 cells [2] = test: Glycogen content in AsPC1 cells; assay type: cell-based, human; conditions: AsPC1, CBS2, 3 hours
# Description: Glycogen was quantified using the Glycogen Assay Kit II (colorimetric) from AbCam (ab169558) according to manufacturer's instructions. Briefly, approximately 2×10^6 cells were washed with ice-cold PBS and collected via scraping in 300 μL ice-cold ddH2O. Cells were immediately sonicated on ice for 5× […] pulses with a probe sonicator (Misonix Inc, model XL2000), then heated to 80° C. for 10 min. Samples were stored O/N at −20° C., then thawed, centrifuged at 12,000×g for 10 min and the supernatants collected for glycogen hydrolysis and quantification according to manufacturer's instructions.
# C. […] Cells were treated in CBS2 for 3 hours with 30 μM devimistat or mock treated (FIG. 2C, left), or treated for 3 hours with the indicated devimistat doses (FIG. 2C, right).
# D. Effects of anti-metabolism agents on glycogen consumption in PANC1 and AsPC1 cells. […] Glycogen content was measured in cell lysates (see Methods, above) and the results are presented in the left and middle graphs in FIG. 3D (note the different vertical scales for PANC1 and AsPC1 plots).
# [3] = tested on: human H460 NSCLC xenografts; test: Oral devimistat in H460 NSCLC xenografts; assay type: in vivo, mice; conditions: oral 100 mg/kg on days 8, 15, 22, 29; vs 5% dextrose or untreated
# Description: Human H460 NSCLC cells were obtained from American Type Cell Culture (ATCC) (catalog no. HTB-177, Manassas, VA). These cells tested negative for viral contamination using the Mouse Antibody Production (MAP) test, performed by Charles River Labs Molecular Division, upon the receipt of the tumor cells from ATCC. The tumor cells were maintained at 37° C. in a humidified 5% CO2 atmosphere in T225 tissue culture flasks containing 50 mL of Roswell Park Memorial Institute (RPMI)-1640 solution with 10% Fetal Bovine Serum (FBS) and 2 mM L-glutamine. Cells were split at a ratio of 1:10 every 2-3 days by trypsinization and resuspended in fresh medium in a new flask. Cells were harvested for experiments in the same way at 70-90% confluency.
# CD1-Nu/Nu female mice, ˜4-6 weeks old were obtained from Charles River Laboratories. Mice were housed 5 to a cage in a micro-isolator room in the Department of Animal Laboratory Research of New York State University (SUNY) at Stony Brook. Light-dark cycles were 12 h each daily, with light from 7 a.m. to 7 p.m. […]
# An acclimation period of 7 days was allowed between the arrival of the animal at the study site before tumor inoculation and experimentation. […] Tumor dimensions (length and width) were measured daily before, during and after treatment (using Vernier calipers) and the tumor volume was calculated using the prolate ellipsoid formula: (length×width^2)/2. […]
# BxPC-3 xenografts = test: Oral devimistat in BxPC3 pancreatic cancer xenografts; assay type: in vivo, mice; conditions: weekly for 4 weeks
# Description: An acclimation period of 7 days was allowed between the arrival of the animal at the study site before tumor inoculation and experimentation. Mice were inoculated subcutaneously (SC) in the right flank with 2×10^6 human H460 NSCLC or BxPC3 pancreatic cancer cells that were suspended in 0.1 mL of Dulbeco's Phosphate Buffered Salt (PBS) solution using a 1 cc syringe with a 27⅝ gauge needle. Tumor dimensions (length and width) were measured daily before, during and after treatment (using Vernier calipers) and the tumor volume was calculated using the prolate ellipsoid formula: (length×width^2)/2. Treatment with test or control articles began 8 days post tumor cell implantation when the tumor was approximately 300 mm^3.
# A similar study was conducted in CD-1 nude mice (n=9) inoculated with 2×10^6 BxPC-3 cells. The study was initiated when tumors reached an average size of 150 mm^3 (day 0) and devimistat was administered at an oral dose of […] for 4 weeks. A comparator arm (n=9) was conducted with IP treatment at a weekly dose of 25 mg/kg.
smiles,measurement,setting,value
"O=C(O)CCCCC(CCSCc1ccccc1)SCc1ccccc1 (stereo not shown) [devimistat, 6,8-bis(benzylsulfanyl)octanoic acid]",sensitivity of AsPC1 line to devimistat monotherapy,AsPC1 cells [1],resistant to devimistat monotherapy
same,glycogen consumption,AsPC1 cells [2],accelerated
same,tumor growth in H460 NSCLC xenografts,[3],grew much more slowly
same,tumor growth in BxPC3 xenografts,BxPC-3 xenografts,especially pronounced

# Source: US20240415791A1, “Therapeutic methods and compositions for treating cancer using devimistat and a fatty acid oxidation inhibitor, a tyrosine kinase inhibitor, a glutaminase inhibitor, and/or a glycolysis inhibitor” (Cornerstone Pharmaceuticals, Inc., priority 2021, published 2024)
